Experiments:
primary human T-cells = assay: IL2 secretion measurements in CD3-stimulated T-cells; type: cell-based; settings: CD3 condition; for Emax IL2 (% activation): 24 hours, 20 μM reference compound A1 = 100%; for EC50: Homo sapiens, T-cell, IL2 secretion after 24 hours, read-out: Tcell IL2 CD3 EC50
Procedure, shortened: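 Expanded primary human T-cells (100 k/well, RPMI + 5% human serum) on plate-bound anti-CD3 (donor-titrated) or PBS counter-screen wells, 5–6 pt dose response from 20 or 10 μM top (dilution factor 3.333), 0.2% DMSO final. IL-2 in 24 h supernatant by ProQuantum immunoassay or ELISA. Normalised to DMSO (0%) and 20 μM reference A1 (100%); EC50 and Emax from sigmoidal fit.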

[1] = target: DGKzeta (hDGKzeta(1-928)-N-His) (Homo sapiens (Human), UniProt Q13574); assay: In vitro DGK inhibition assay, ADP-Glo (in house), DGKzeta; type: biochemical; settings: DLG liposomes, 50 μM ATP, 2 nM enzyme, 1 hour reaction
DGKzeta (hDGKzeta(1-928)-N-His), sequence (Q13574 whole entry): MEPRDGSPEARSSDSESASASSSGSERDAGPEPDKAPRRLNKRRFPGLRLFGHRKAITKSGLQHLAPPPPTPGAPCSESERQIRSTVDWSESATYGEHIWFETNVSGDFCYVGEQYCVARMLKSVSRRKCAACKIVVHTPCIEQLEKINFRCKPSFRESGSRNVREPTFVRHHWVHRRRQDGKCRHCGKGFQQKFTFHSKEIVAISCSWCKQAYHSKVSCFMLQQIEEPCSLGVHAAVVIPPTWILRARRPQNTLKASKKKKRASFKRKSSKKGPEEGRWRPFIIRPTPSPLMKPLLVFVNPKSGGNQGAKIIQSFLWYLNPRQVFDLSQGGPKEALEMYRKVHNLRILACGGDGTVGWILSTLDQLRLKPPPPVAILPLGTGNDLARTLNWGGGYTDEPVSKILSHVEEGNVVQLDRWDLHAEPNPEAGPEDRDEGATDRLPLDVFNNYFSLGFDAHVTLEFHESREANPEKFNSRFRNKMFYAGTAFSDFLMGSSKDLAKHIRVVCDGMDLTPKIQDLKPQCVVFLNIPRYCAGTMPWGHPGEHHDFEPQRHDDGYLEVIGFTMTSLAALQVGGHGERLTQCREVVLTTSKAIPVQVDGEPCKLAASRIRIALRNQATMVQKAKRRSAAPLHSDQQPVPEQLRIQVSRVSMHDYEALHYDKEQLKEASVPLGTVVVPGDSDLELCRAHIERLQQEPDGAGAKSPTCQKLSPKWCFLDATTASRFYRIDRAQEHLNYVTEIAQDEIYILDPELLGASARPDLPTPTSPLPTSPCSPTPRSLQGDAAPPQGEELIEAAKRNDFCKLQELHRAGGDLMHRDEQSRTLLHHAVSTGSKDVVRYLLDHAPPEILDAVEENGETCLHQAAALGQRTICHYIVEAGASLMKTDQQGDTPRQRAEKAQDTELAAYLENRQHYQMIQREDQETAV

COc1ccc(-c2ccc(CN3C(=O)[C@@H](N)CS(=O)(=O)c4cc(F)c(-c5cnc(C)c(C)c5)cc43)cc2)cc1 [Example 28, (3R)-3-amino-7-(5,6-dimethyl-3-pyridyl)-8-fluoro-5-[[4-(4-methoxyphenyl)phenyl]methyl]-1,1-dioxo-2,3-dihydro-1λ6,5-benzothiazepin-4-one]
Emax IL2 (% activation) (primary human T-cells): 237 % activation
EC50 (primary human T-cells): 0.763 µM
IC50 [1]: 9.91 µM

CC(C)(C)c1cncc(-c2cc3c(cc2F)S(=O)(=O)C[C@H](N)C(=O)N3Cc2ccc(Cl)cc2)c1 [Example 2, (3R)-3-amino-7-(5-tert-butyl-3-pyridyl)-5-[(4-chlorophenyl)methyl]-8-fluoro-1,1-dioxo-2,3-dihydro-1λ6,5-benzothiazepin-4-one]
Emax IL2 (% activation) (primary human T-cells): 109 % activation
EC50 (primary human T-cells): 0.459 µM

CC(C)(c1cncc(-c2cc3c(cc2F)S(=O)(=O)C[C@H](N)C(=O)N3Cc2ccc(-c3noc(C(F)(F)F)n3)cc2)c1)S(C)(=O)=O [Example 25, (3R)-3-amino-8-fluoro-1,1-diketo-7-[5-(1-mesyl-1-methyl-ethyl)-3-pyridyl]-5-[4-[5-(trifluoromethyl)-1,2,4-oxadiazol-3-yl]benzyl]-2,3-dihydro-1λ6,5-benzothiazepin-4-one]
Emax IL2 (% activation) (primary human T-cells): 168 % activation
EC50 (primary human T-cells): 4.52 µM
IC50 [1]: 43.1 µM

CC(C)(C)c1cnnc(-c2cc3c(cc2F)S(=O)(=O)C[C@H](N)C(=O)N3Cc2ccc(Cl)cc2)n1 [Example 11, (3R)-3-amino-7-(5-tert-butyl-1,2,4-triazin-3-yl)-5-[(4-chlorophenyl)methyl]-8-fluoro-1,1-dioxo-2,3-dihydro-1λ6,5-benzothiazepin-4-one]
Emax IL2 (% activation) (primary human T-cells): 79 % activation
EC50 (primary human T-cells): 0.119 µM

CC(C)(C#N)c1cncc(-c2cc3c(cc2F)S(=O)(=O)C[C@H](N)C(=O)N3Cc2ccc(-c3noc(C(F)(F)F)n3)cc2)c1 [Example 23, 2-[5-[(3R)-3-amino-8-fluoro-1,1,4-triketo-5-[4-[5-(trifluoromethyl)-1,2,4-oxadiazol-3-yl]benzyl]-2,3-dihydro-1λ6,5-benzothiazepin-7-yl]-3-pyridyl]-2-methyl-propionitrile]
Emax IL2 (% activation) (primary human T-cells): 213 % activation
EC50 (primary human T-cells): 3.54 µM
IC50 [1]: 9.88 µM
